{
  "source": "paper PMC9220351",
  "about": "“Evaluation of a Conformationally Constrained Indole Carboxamide as a Potential Efflux Pump Inhibitor in Pseudomonas aeruginosa” (Antibiotics, 2022)",
  "tested_on": "P. aeruginosa ATCC 27853 inner membrane potential",
  "assay": "DiOC2 (3) membrane polarization assay",
  "assay_type": "cell-based, Pseudomonas aeruginosa",
  "conditions": "Pseudomonas aeruginosa, ATCC27853; read-out: IC50 (DiOC2 (3) membrane polarization, Figure 4A)",
  "protocol": "RND efflux pumps couple the influx of protons from the proton gradient across the inner membrane to the efflux of drugs and other molecules. […] The effect of TXA09155 on the proton gradient of P. aeruginosa was assessed with a fluorescence-based 3,3′-diethyloxacarbocyanine iodide [DiOC2 (3)] assay that was developed to measure membrane potential changes in Gram-negative bacteria. DiOC2 (3) is a positively charged fluorescent dye that accumulates within cells in a charge-dependent manner, shifting its fluorescence spectrum from green to red at high concentrations due to concentration-dependent dye stacking. […] Azithromycin and CCCP were used as […] controls, respectively.\nP. aeruginosa membrane polarization assays were conducted as described previously using strain ATCC 27853. […] DiOC2 (3) fluorescence was recorded in a microplate reader using 450 nm excitation and 670 nm emission (for red fluorescence). Background correction for each concentration of each compound was obtained from reading the fluorescence of compounds in the resuspension buffer without cells. After background correction, fluorescence was normalized to that of the vehicle (DMSO) only. After a 30 min incubation at 37 °C, DiOC2 (3) fluorescence was recorded using a SpectraMax iD5 spectrophotometer (Molecular Devices, San Jose, CA, USA) following excitation at 450 nm. […]",
  "data": [
    {"smiles": "N#CC(C#N)=NNc1cccc(Cl)c1", "note": "[CCCP, Carbonyl cyanide 3-chlorophenylhydrazone]", "values": [
      {"measurement": "IC50", "value": 15, "unit": "nM"}
    ]}
  ]
}
